The record followed here is publication PMC12040169 (PLOS Biology, 2025).

The data set is described as follows: in vitro. To be noted: human, hela cells, % viability.

Take `CSc1ccccc1C(=O)N1CCN(S(=O)(=O)c2sc(C(=O)O)c(C)c2C(=O)O)CC1` [CBK297149]: the viability at 28.5 h, 10 µM was 90.4%. Under `Cc1ccc(N(Cc2ccco2)C(=O)c2cccc(S(=O)(=O)N3CCOCC3)c2)cc1` [CBK265857] stands 96.4%; under `O=c1[nH]c(=O)c2ccn([C@H]3C[C@@H](O)[C@@H](CO)O3)c2[nH]1` [CBK201331], 99%; under `O=C(Cc1ccccc1)N1CCN(S(=O)(=O)N2CCOCC2)CC1` [CBK268857], 108%. As for `O=C(O)CCCOc1nc(C2CC2)cc(C(F)(F)F)n1` [CBK286886], the viability at 28.5 h, 10 µM amounted to 92%. On to `CC(C)(C)c1cc(C[C@H]2CNCC[C@H]2CC(=O)N2CCN(c3ccc(F)cc3)CC2)no1` [CBK288800], for which the viability at 28.5 h, 10 µM was 94.8%. Turning to `COc1ccc(N2CCN(/C(=N/S(=O)(=O)c3ccccc3)Nc3nc(C)cc(C)n3)CC2)cc1` [CBK266750], the viability at 28.5 h, 10 µM came out at 88.7%.

In the case of `O=S1(=O)N=C(N2CCN(Cc3ccc4c(c3)OCO4)CC2)c2ccccc21` [CBK266064], the viability at 28.5 h, 10 µM is 104%. For `CC(C)C(=O)N1CCCC2(CC1)CN(C)Cc1ccccc1O2` (centres unmarked) [CBK285132], the viability at 28.5 h, 10 µM came out at 103%. As for `CCCc1ccc(S(=O)(=O)N2CCOC(c3cnn(CC)c3)C2)cc1` (centres unmarked) [CBK306169], the viability at 28.5 h, 10 µM is 83.4%.

As for `CCC(C)NC(=O)C1CCC(=O)N1Cc1ccc(C)cc1` (centres unmarked) [CBK294470], the viability at 28.5 h, 10 µM was determined as 90%.

Regarding `COc1ccc(Cn2ncnc2CC2CCNCC2)cc1` [CBK307071], the viability at 28.5 h, 10 µM amounted to 83.4%. Turning to `O=C(NCCN1CCCC1=O)Nc1ccccc1` [CBK263517], the viability at 28.5 h, 10 µM was found to be 116%. In the case of `CCn1c(CN2CCOCC2)nnc1SCC(=O)Nc1cc(C)cc(C)c1` [CBK270258], the viability at 28.5 h, 10 µM turned out to be 95.9%. The figure for `COc1ccc([N+](=O)[O-])cc1-c1ccc(/C=N/NC(=O)Cn2nnnc2N)o1` [CBK262505] is 92.2%; for `CC1CC1C(=O)NCC(=O)Nc1nc2ccc(OC(F)(F)F)cc2s1` (centres unmarked) [CBK297874] it is 98.3%; for `Cc1nc(CC(=O)NCc2cccnc2N2CCOCC2)cs1` [CBK304331] it is 98.7%. Turning to `CN(C)c1nc(N(C)C)n(C(=O)c2cccs2)n1` [CBK019805], the viability at 28.5 h, 10 µM was 99.3%.

Take `CCCCCC(=O)Nc1ccc(C(=O)CSc2nnc(-c3ccco3)o2)cc1` [CBK295134]: the viability at 28.5 h, 10 µM was 84%. As to `CC(=O)NCC(=O)Nc1cnc(-c2cccc(C(F)(F)F)c2)c(-c2cccnc2)n1` [CBK036809], the viability at 28.5 h, 10 µM was 103%. The figure for `Nc1nonc1C(=O)NCCNCc1ccc(Cl)cc1` [CBK267194] is 101%.

For the molecule `CCC(Sc1nc(O)cc(-c2ccccc2)n1)C(=O)O` (centres unmarked) [CBK287135], the viability at 28.5 h, 10 µM is 87.8%. For `O=C(c1ccco1)N1CCN(S(=O)(=O)c2ccc(Cl)cc2)CC1` [CBK068411], the viability at 28.5 h, 10 µM turned out to be 104%. Regarding `Cn1cc(C2CCCCCN2Cc2cc(Cl)ccc2O)cn1` (centres unmarked) [CBK282941], the viability at 28.5 h, 10 µM was 100%.

Consider `Cc1cc2ccccc2n2c(=O)n(Cc3cscn3)nc12` [CBK282381], for which the viability at 28.5 h, 10 µM was 102%. Turning to `CC1(C#N)CCCN(Cc2c[nH]nc2C(=O)O)C1` (centres unmarked) [CBK307010], the viability at 28.5 h, 10 µM turned out to be 80.1%.

In the case of `CC(CN1CCOCC1)OC(=O)c1ccco1` (centres unmarked) [CBK264606C], the viability at 28.5 h, 10 µM is 92.9%. In the case of `CCOC(=O)C1(Cc2cc(-c3ccccc3)no2)CCCNC1` (centres unmarked) [CBK284583], the viability at 28.5 h, 10 µM was 98.9%.

In the case of `Cc1nc2sccn2c1CN1CCCC(C(=O)N2CCOCC2)C1` (centres unmarked) [CBK305390], the viability at 28.5 h, 10 µM was determined as 97.6%.

As for `Cc1nnc2n1CCN(CC1CCCCO1)C2` (centres unmarked) [CBK304267], the viability at 28.5 h, 10 µM is 105%. `O=C(Cc1ccccc1)Nc1ccc(Oc2ccc(C(=O)O)c(C(=O)O)c2)cc1` [CBK263611]: the viability at 28.5 h, 10 µM came to 90.3%. Under `Cn1c(=O)[nH]c(=O)c2c1nc(SCCN1CCCCC1)n2CCCc1ccccc1` [CBK269469] stands 91.7%; under `O=c1[nH]c2ccccc2n1CCCN1CCC[C@@H]1CN1CCCC1` [CBK137111T], 93.5%. As to `O=C(O)c1sccc1S(=O)(=O)NCc1ccc(Cn2cccn2)cc1` [CBK296707], the viability at 28.5 h, 10 µM came to 99.4%.

Regarding `Cc1ccc(CCC(=O)N2CCCC2c2nc3ccccc3[nH]2)o1` (centres unmarked) [CBK284012], the viability at 28.5 h, 10 µM is 93.3%.

For `Cn1nc(-c2ccc(N3CCCCC3)c(NC(=O)COc3ccccc3)c2)c2ccccc2c1=O` [CBK265780], the viability at 28.5 h, 10 µM came out at 97.3%.

Take `COC(=O)[C@@H]1Cc2ncn(C(C)C)c2CN1C(=O)c1ccccc1` [CBK288987]: the viability at 28.5 h, 10 µM turned out to be 82.2%. For `O=C(COc1ccc(F)cc1)N1CCC2(CCNC2)C1` (centres unmarked) [CBK156691C], the viability at 28.5 h, 10 µM turned out to be 92.5%. Turning to `Cc1cccc(Cl)c1S(=O)(=O)c1ccc2ccnc(N3CCNCC3)c2c1` [CBK036394C], the viability at 28.5 h, 10 µM is 78.9%. Regarding `O=C(CSc1nnc(-c2ccccc2O)n1Cc1ccccc1)NC12CC3CC(CC(C3)C1)C2` [CBK266075], the viability at 28.5 h, 10 µM is 88.9%. As to `Cc1cc(N2CCOCC2)c2c(N)c(Br)cc(C)c2n1` [CBK066880], the viability at 28.5 h, 10 µM was determined as 73%. With `CCn1nc(C)c(C(C)NC(=O)c2c3c(nn2CC)CCCC3)c1C` (centres unmarked) [CBK282077], the viability at 28.5 h, 10 µM was 85%. Take `COc1ccc(F)c(CN(CC2CCNCC2)C(=O)Nc2c(F)cccc2F)c1` [CBK049804]: the viability at 28.5 h, 10 µM was 110%.

With `COc1ccc(-c2nc3ccccc3s2)cc1O` [CBK026156], the viability at 28.5 h, 10 µM was 91.6%. Regarding `CC(C)CN1CCC2(CC=CCN(Cc3ccc(F)cc3)C2=O)CC1` [CBK285521], the viability at 28.5 h, 10 µM is 116%.

`CC(=O)c1c(C)[nH]c(C(=O)N2CCN(C3CCN(C)CC3)CC2)c1C` [CBK149098]: the viability at 28.5 h, 10 µM was found to be 104%.

`C[C@@H](c1ccccc1)n1c(=O)[nH]c2ncc(-c3cccc4cccnc34)nc21` [CBK064199]: the viability at 28.5 h, 10 µM came out at 92%. As to `O=C(NCc1ccco1)[C@@H]1C=CCN1C(=O)Nc1ccccc1Cl` [CBK284269], the viability at 28.5 h, 10 µM was found to be 84.3%. As to `COc1ccc(Nc2cc(-c3cc4ccccc4o3)ncn2)c(C)c1` [CBK091040], the viability at 28.5 h, 10 µM stood at 87.7%. As for `CC(=O)C1=C(O)C(=O)N(CCN2CCOCC2)C1c1cccc([N+](=O)[O-])c1` (centres unmarked) [CBK264568], the viability at 28.5 h, 10 µM amounted to 98%. For `Fc1ccccc1CN(CCCn1ccnc1)Cc1ccoc1` [CBK283024], the viability at 28.5 h, 10 µM was 89.9%.

As for `N=C1OC2CSCC2N1C(=O)Cc1c(F)cccc1Cl` (centres unmarked) [CBK284517], the viability at 28.5 h, 10 µM was found to be 84.9%. Consider `COC(=O)c1ccc(NC(=O)COn2nnc3ccc([N+](=O)[O-])cc32)cc1` [CBK267106], for which the viability at 28.5 h, 10 µM came to 94.3%. Take `Fc1ccc(C2C=C(c3ccc(F)cc3F)Nc3ncnn32)cc1` (centres unmarked) [CBK288095]: the viability at 28.5 h, 10 µM is 99.7%. Under `CS(=O)(=O)Nc1ccc(-c2cccc(C(F)(F)F)c2)c2ccccc12` [CBK083746] stands 95.4%; under `COc1ccc(C(NC(=O)c2ccc(Cn3cncn3)cc2)c2ccccc2)cc1` (centres unmarked) [CBK285749], 106%; under `CCCCOc1ccc2c(C(F)(F)F)cc(=O)oc2c1` [CBK097821], 104%.

Regarding `COc1cc2c(cc1OC)C1c3ccccc3NC(c3ccc(C)cc3)N1CC2` (centres unmarked) [CBK286195], the viability at 28.5 h, 10 µM was 72.7%.

On to `NCCC(=O)N(CCc1cc(C(F)(F)F)cc(C(F)(F)F)c1)c1cccc2ccccc12` [CBK000695T], for which the viability at 28.5 h, 10 µM stood at 0%.

In the case of `CC(C)C(=O)Nc1ccc2nc(-c3ccoc3)c(-c3ccoc3)nc2c1` [CBK286304], the viability at 28.5 h, 10 µM was 96.9%.

As to `Cc1c(N2C(=O)/C(=C3\C(=O)Nc4ccc([N+](=O)[O-])cc43)SC2=S)c(=O)n(-c2ccccc2)n1C` [CBK263071], the viability at 28.5 h, 10 µM turned out to be 115%. As for `CC(C)(C)OC(=O)N1CCCC(C(=O)Nc2ccccn2)C1` (centres unmarked) [CBK304524], the viability at 28.5 h, 10 µM was 95.4%. Regarding `COc1cc(CNC(=O)C(C)SCc2ccccc2)ccn1` (centres unmarked) [CBK298331], the viability at 28.5 h, 10 µM turned out to be 90.8%. Under `COc1ccc(C(=O)Nc2ccccc2-c2nc3ccccc3s2)cc1OC` [CBK266376] stands 93.9%; under `O=C(NCc1ccccc1OC1CCNC1)c1cnccn1` (centres unmarked) [CBK029462T], 101%. As to `Cc1nc2c(OCC3CCCCC3)cccn2c1N(C)CC1CC1` [CBK147279], the viability at 28.5 h, 10 µM turned out to be 97.2%. Regarding `CCOc1ccc(NCc2ccccc2NS(=O)(=O)c2ccc(C)cc2)cc1` [CBK056876], the viability at 28.5 h, 10 µM came to 93.6%. In the case of `Cc1cccnc1C(NC(=O)C1CCN(CCOc2ccccc2)CC1)c1ccc(F)cc1` (centres unmarked) [CBK147892], the viability at 28.5 h, 10 µM was 91.8%. In the case of `CC(O)CNCCNCc1cccs1` (centres unmarked) [CBK278279C], the viability at 28.5 h, 10 µM stood at 109%.

For `COCCc1noc(CC2CCN(c3ncc(Cl)cn3)CC2)n1` [CBK304172], the viability at 28.5 h, 10 µM came to 88.7%. For `Nc1c(C(=O)c2ccc3c(c2)OCO3)sc2nc(-c3cccnc3)ccc12` [CBK270186], the viability at 28.5 h, 10 µM came to 86.3%. On to `CC1CCCC(C)N1C(=O)Cn1ncn2c(cc3ccsc32)c1=O` (centres unmarked) [CBK284191], for which the viability at 28.5 h, 10 µM is 110%. For the molecule `O=C(N/N=C\c1ccccc1O)c1nc([N+](=O)[O-])n[nH]1` [CBK261475], the viability at 28.5 h, 10 µM came out at 99.8%.

In the case of `CNC(=O)C1(Cc2ccccc2-c2cccc(F)c2)CCN(C(=O)Cc2ccccc2)CC1` [CBK285692], the viability at 28.5 h, 10 µM came to 115%. As for `C=CCNC(=O)N1CC[C@H]2CC(=O)N(Cc3cccnc3)CC[C@H]2C1` [CBK288791], the viability at 28.5 h, 10 µM was determined as 113%. Turning to `Cn1cnnc1SCC(=O)c1cccc(C(F)(F)F)c1` [CBK067718], the viability at 28.5 h, 10 µM came to 93.5%. `O=C(c1ccsc1NS(=O)(=O)c1ccc2ccccc2c1)N1CCOCC1` [CBK042278]: the viability at 28.5 h, 10 µM was found to be 93.7%. Under `O=C(CCSS(=O)(=O)O)N1CCc2ccccc21` [CBK260892N] stands 94.4%; under `C=C(C)Cn1c(SCC(=O)O)nnc1-c1ccc([N+](=O)[O-])cc1` [CBK263159], 89.8%.

For `CC(=O)N1C[C@@H]2OCC(=O)N(Cc3nccn3C)[C@@H]2C1` [CBK289668], the viability at 28.5 h, 10 µM was 90.6%.

As usually defined, the viability is a read-out of living cells in per cent, often relative to untreated cells.
